The values below come from patent US20250060368A1, “METHODS OF DETECTING AND TREATING IMMUNOTHERAPY-RESISTANT CANCER” (Washington University, priority 2022, published 2025).

Assay [1] concerns B-ALL. Put plainly: Clinical case of B-ALL patient treated with blinatumomab and KTE-X19 (ZUMA-3). The assay is classed as in vivo, human. As to conditions: person with B-ALL, CD19ΔTyr260. On the procedure: A person with B-ALL was treated with chemotherapy followed by 2 cycles of blinatumomab as initial therapy. […] B lymphoblasts. Using targeted RNA sequencing, an in-frame deletion within the extracellular domain of CD19 at […]) was identified (FIG. 6A).

Assay [2] concerns B-ALL. Conditions: patients receiving blinatumomab or anti-CD19 CAR T for B-ALL; cited from earlier work.

Consider “blinatumomab: CD19 bispecific T-cell engager approved for R/R B-ALL”, for which the Clinical response entry in assay [1] is listed as “relapsed after the second cycle”. In addition, the “Patients in whom emergence of CD19-negative clones is a cause of relapse” value in assay [2] is reported as 10%-20%.
